According to US4990613A, “(1R,5S,6S)-2-[(6,7-dih ydro-5H-pyrazolo[1,2-a][1,2,4]triazolium-6-yl)]thio-6-[R-1-hydroxyethyl]- 1-methyl-carbapenem-3-carboxylate and intermediate therefor” (Lederle (Japan), Ltd., priority 1987, dated 1991):
Converted amounts (≈) assume the structure as drawn. Like-named read-outs stand apart in the source and are kept apart here.

Experiments:
[1] = test system: Proteus vulgaris GN 7919; experiment: Antibacterial activity against clinically isolated β-lactamase producing strains; format: cell-based; details: Proteus vulgaris, GN7919
Protocol: (§1) A solution of a cephalosporinase producing strain stored by Episome Research Institute, which was prepared by incubating the strain in a sensitivity test broth (STB; product of Nissui K.K.) for 18 hours, was diluted with a fresh STB solution to contain 10^5 cells per milliliter and the diluted solution was then inoculated as spots with a microplanter on a sensitivity disk agar-N (SDA; product of Nissui K.K.) containing a test compound. The disk agar was then incubated for 18 to 20 hours. A minimum inhibitory concentration was determined as a minimum concentration in which the test microorganism had no longer grown after a 18 to 20 hour incubation.

[2] = test system: Proteus vulgaris GN 4413; experiment: as above; format: cell-based; details: Proteus vulgaris, GN4413
Protocol: as §1

[3] = test system: Proteus morganii GN 5375; experiment: as above; format: cell-based; details: Morganella morganii, GN5375
Protocol: as §1

[4] = test system: Serratia marcescens L-82; experiment: as above; format: cell-based; details: Serratia marcescens, L82; cephalosporinase producing strain, 18 to 20 hours; read-out: MIC
Protocol: as §1

[5] = test system: Serratia marcescens L-65; experiment: as above; format: cell-based; details: Serratia marcescens, L65; cephalosporinase producing strain, 18 to 20 hours; read-out: MIC
Protocol: as §1

[6] = test system: Enterobacter cloacae GN 5797; experiment: as above; format: cell-based; details: Enterobacter cloacae, GN5797; cephalosporinase producing strain, 18 to 20 hours; read-out: MIC
Protocol: as §1

[7] = test system: Klebsiella pneumoniae PCI-602; experiment: Antibacterial test, agar plate dilution method; details: Klebsiella pneumoniae, PCI602, 18 h
[8] = test system: Micrococcus luteus ATCC9341; experiment: Antibacterial test, agar plate dilution method; details: Micrococcus luteus, ATCC9341, 18 h
[9] = test system: Streptococcus pyogenes Cook; experiment: Antibacterial test, agar plate dilution method; details: Streptococcus pyogenes, 18 h
[10] = test system: Pseudomonas aeruginosa NCTC 10490; experiment: Antibacterial test, agar plate dilution method; details: Pseudomonas aeruginosa, NCTC10490, 18 h
[11] = test system: Pseudomonas aeruginosa GN 918; experiment: Antibacterial activity against clinically isolated β-lactamase producing strains; format: cell-based; details: Pseudomonas aeruginosa, GN918; cephalosporinase producing strain, 18 to 20 hours; read-out: MIC
Protocol: as §1

[12] = test system: Enterobacter cloacae GN 7467; experiment: as above; format: cell-based; details: Enterobacter cloacae, GN7467; cephalosporinase producing strain, 18 to 20 hours; read-out: MIC
Protocol: as §1

[13] = test system: Enterobacter cloacae GN 7471; experiment: as above; format: cell-based; details: Enterobacter cloacae, GN7471; cephalosporinase producing strain, 18 to 20 hours; read-out: MIC
Protocol: as §1

[14] = test system: Proteus vulgaris GN 76; experiment: as above; format: cell-based; details: Proteus vulgaris, GN76
Protocol: as §1

[15] = test system: Swine Kidney Dehydropeptidase-I (DHP-I); experiment: Hydrolysis activity against DHP-I enzyme substrate by late assay; format: in vitro ADME; details: final substrate concentration 100 μM, 10 minutes, pH 7.1
Protocol: The swine kidney (8 kg) was homogenized and an enzyme protein was allowed to precipitate. After a connective lipid was removed with acetone, the resultant material was made soluble by treatment with butanol and purified in the order by the ammonium sulfate fraction method, thereby producing DPH-I enzyme from a 75% ammonium sulfate fraction.
The DHP-I enzyme was then adjusted to give an enzyme concentration of 25 mg/10 ml (phosphate buffer, pH 7.1), and divided into 1 ml portions. The portions were frozen and stored at -40° C. or less until use.
As control compounds were employed glycyl dehydrophenylalanine (Gl-dh-Ph) and imipenem, and they were adjusted in situ each to give the concentration of 177 μM with the same sodium phosphate buffer solution.
To 1.2 ml of a 50 mM sodium phosphate buffer solution (substrate) containing 177 μM of each of Gh-dh-Ph and imipenem as the control compounds was added 0.2 ml of the DHP-I enzyme solution (25 mg/10 ml) prepared above in the final substrate concentration of 100 μM. The solution was then incubated at […] for 10 minutes. An initial velocity of hydrolysis of the substrate was measured from a decrease in absorbency at a particular λmax of each of the substrates.
A blank test was conducted in substantially the same manner as above by adding 0.2 ml of the sodium phosphate buffer solution (pH 7.1) to 1.2 ml of the above substrate.

[16] = test system: Proteus vulgaris HX-19; experiment: Antibacterial test, agar plate dilution method; details: Proteus vulgaris, HX19, 18 h
[17] = test system: Proteus vulgaris OX-19; experiment: Antibacterial test, agar plate dilution method; details: Proteus vulgaris, OX19, 18 h
[18] = test system: P. aeruginosa resistant strains; experiment: Sensitivity test against clinical isolates, P. aeruginosa resistant strains; format: cell-based; details: 54 resistant strains
Protocol: It is noted here that the 54 strains have been chosen because there have been the strains in duplicate with the agents. ______________________________________ Ceftazidime (CAZ) (25 to 100 μg/ml) 21 strains Cefsulodine (CFS) (25 to >100 μg/ml) 23 strains Piperacilin (PIPC) (25 to >100 μg/ml) 15 strains Gentamycin (GM) (25 to >100 μg/ml) 21 strains Amikacin (AMK) (25 to >100 μg/ml) 26 strains Ofloxacin (OFLX) (25 to >100 μg/ml) 4 strains ______________________________________
A minimum inhibitory concentration (MIC) was determined in substantially the same manner as the test procedures II above using the 54 strains of P. aeruginosa having an anti-Pseudomonas resistance.

[19] = test system: Proteus mirabilis IFO3849; experiment: Antibacterial test, agar plate dilution method; details: Proteus mirabilis, IFO3849, 18 h
[20] = test system: C. freundii resistant strains; experiment: Sensitivity test against clinical isolates, C. freundii resistant strains; format: cell-based; details: CFIX/CTX resistant strains
Protocol: Cefixime (CFIX) (50 to >100 μg/ml)
Cefotaxime (CTX) (50 to >100 μg/ml)
The tests were carried out in the same manner as described above Test 1.

[21] = cephalosporinase producing strain, 18 to 20 hours, read-out: MIC

Cc1nnc(SCC2=C(C(=O)O)N3C(=O)[C@@H](NC(=O)Cn4cnnn4)[C@H]3SC2)s1 [CEZ]
MIC [1]: 3.13 µg/mL (≈ 6.89 µM)
MIC [2, 21]: 0.2 µg/mL (≈ 0.44 µM)
MIC [3, 21]: 0.2 µg/mL (≈ 0.44 µM)
MIC [4]: 0.39 µg/mL (≈ 0.858 µM)
MIC [5]: 0.2 µg/mL (≈ 0.44 µM)
MIC [6]: 0.39 µg/mL (≈ 0.858 µM)
MIC [7]: 0.78 µg/mL (≈ 1.72 µM)
MIC [8]: 0.39 µg/mL (≈ 0.858 µM)
MIC [9]: 0.1 µg/mL (≈ 0.22 µM)
MIC [10]: > 100 µg/mL

C[C@@H](O)[C@H]1C(=O)N2C(C(=O)O)=C(SCCN=CN)C[C@H]12 [Imipenem]
MIC [11]: 0.78 µg/mL (≈ 2.61 µM)
MIC [1, 21]: 0.39 µg/mL (≈ 1.3 µM)
MIC [12]: 0.78 µg/mL (≈ 2.61 µM)
MIC [2]: 6.25 µg/mL (≈ 20.9 µM)
MIC [3]: 3.13 µg/mL (≈ 10.5 µM)
MIC [13]: 0.2 µg/mL (≈ 0.668 µM)
MIC [4]: 0.2 µg/mL (≈ 0.668 µM)
MIC [5]: 0.39 µg/mL (≈ 1.3 µM)
MIC [6]: 0.39 µg/mL (≈ 1.3 µM)
MIC [14]: 3.13 µg/mL (≈ 10.5 µM)
MIC [7]: 0.39 µg/mL (≈ 1.3 µM)
initial velocity of hydrolysis against DHP-I [15]: 0.56 µM/min
MIC [16]: 0.78 µg/mL (≈ 2.61 µM)
MIC [8]: 0.025 µg/mL (≈ 0.0835 µM)
MIC [9]: < 0.006 µg/mL
MIC [17]: 0.78 µg/mL (≈ 2.61 µM)
test microorganisms whose growth is inhibited ([18]; concentration of 12.5 μg/ml): all the test microorganism
test microorganisms whose growth is inhibited ([18]; concentration of […]): approximately 98%
MIC [19]: 6.25 µg/mL (≈ 20.9 µM)
MIC [10]: 0.78 µg/mL (≈ 2.61 µM)
test microorganisms whose growth is inhibited ([20]; concentration of 0.78 μg/ml): approximately 90%
test microorganisms whose growth is inhibited ([20]; concentration of 1.56 μg/ml): all the test microorganisms
